In the CheMixHub viscosity set:
Several values for one entry are separate records, joined by “and”; a condition that tells them apart may be missing. Equal values may be shown once.

Assay: xn = mol fraction of the nth substance listed

CCN(CC)CC + ClC(Cl)Cl
298.15 K, 101 kPa
Details	viscosity [mPa·s]
x2 = 0.0983	0.389
x2 = 0.1979	0.442
x2 = 0.2978	0.503
x2 = 0.3989	0.567
x2 = 0.4988	0.618
x2 = 0.5829	0.64
x2 = 0.6859	0.631
x2 = 0.8008	0.604
x2 = 0.901	0.574

CCN(CC)CC + CCCCO
303.15 K, 101 kPa
Details	viscosity [mPa·s]
x1 = 0.01087	2.223
x1 = 0.02221	2.193
x1 = 0.0326	2.162
x1 = 0.04176	2.133
x1 = 0.05247	2.098
x1 = 0.06249	2.076
x1 = 0.07262	2.052
x1 = 0.08419	2.019
x1 = 0.09512	1.991

ClC(Cl)(Cl)Cl + C=C(C)C(=O)OC
303.15 K, 101 kPa
Details	viscosity [mPa·s]
x2 = 0.0997	0.7954
x2 = 0.1978	0.753
x2 = 0.4056	0.6767
x2 = 0.5067	0.641
x2 = 0.5941	0.6167
x2 = 0.7976	0.5599
x2 = 0.8944	0.536

ClC(Cl)(Cl)Cl + COCCO
viscosity [mPa·s], 100 kPa
Details	x1 = 0.0831	x1 = 0.1694	x1 = 0.2591	x1 = 0.3523	x1 = 0.4494	x1 = 0.5504	x1 = 0.6557	x1 = 0.7655	x1 = 0.8802
298.15 K	1.569	1.49	1.412	1.335	1.26	1.186	1.114	1.043	0.9736
303.15 K	1.392	1.328	1.265	1.202	1.171	1.079	1.019	0.9601	0.902
308.15 K	1.24	1.188	1.137	1.111	1.036	0.9853	0.9601	0.8863	0.8376
313.15 K	1.108	1.067	1.025	0.9841	0.9429	0.9015	0.8608	0.8201	0.7796

CCCC(C)=O + CCCCN
303.15 K, 101.33 kPa
Details	viscosity [mPa·s]
x2 = 0.1	0.608
x2 = 0.1974	0.752
x2 = 0.3754	0.936
x2 = 0.5189	1.023
x2 = 0.6418	1.061
x2 = 0.7158	0.949
x2 = 0.8252	0.825
x2 = 0.8978	0.709

CCCC[N+](CCCC)(CCCC)CCCC.[I-] + CCCCCCCCCO
101.3 kPa, x1 = 0.0476
Details	viscosity [mPa·s]
293.15 K	16.29
298.15 K	13.16
303.15 K	10.92
308.15 K	9.085
313.15 K	7.675
318.15 K	6.439
323.15 K	5.529

O=C1CCCCCN1 + O=C(O)c1ccccc1
101 kPa, x1 = 0.5
Details	viscosity [mPa·s]
303.2 K	104.2
313.1 K	48.15
323.1 K	27.31

CC1CCCCC1O (stereo unspecified) + c1ccccc1
293.15 K, 101 kPa
Details	viscosity
x2 = 0.33	3.2 mPa·s
x2 = 0.5	1.8 mPa·s
x2 = 0.6	1.5 mPa·s
x2 = 0.7	1.3 mPa·s
x2 = 0.8	1.1 mPa·s and 1 mPa·s

CCC(C)(O)CC + CO
298.15 K, 101.33 kPa
Details	viscosity [mPa·s]
x2 = 0.1032	3.799
x2 = 0.2156	3.553
x2 = 0.3158	3.317
x2 = 0.4019	3.048
x2 = 0.5004	2.6
x2 = 0.6084	2.079
x2 = 0.7088	1.568
x2 = 0.8021	1.16
x2 = 0.9011	0.8027

CCCC(C)=O + CN(C)c1ccccc1
viscosity [mPa·s], 101 kPa
Details	303.15 K	308.15 K
x2 = 0.0756	0.574	0.525
x2 = 0.1362	0.669	0.611
x2 = 0.2003	0.76	0.7
x2 = 0.2795	0.875	0.803
x2 = 0.3412	0.941	0.873
x2 = 0.4101	1.012	0.94
x2 = 0.4921	1.072	1.001
x2 = 0.5741	1.112	1.041
x2 = 0.6512	1.134	1.063
x2 = 0.7214	1.143	1.071
x2 = 0.7914	1.148	1.074
x2 = 0.8512	1.15	1.076
x2 = 0.9214	1.159	1.085

ClC(Cl)(Cl)Cl + CS(C)=O
Details	viscosity [mPa·s]
298 K, 101.3 kPa, x1 = 0.1093	2.001
298 K, 101.3 kPa, x1 = 0.226	1.852
298 K, 101.3 kPa, x1 = 0.4246	1.654
298 K, 101.3 kPa, x1 = 0.5746	1.5
298 K, 101.3 kPa, x1 = 0.6402	1.399
298 K, 101.3 kPa, x1 = 0.8661	1.067
303.15 K, 101.33 kPa, x1 = 0.2642	1.553
303.15 K, 101.33 kPa, x1 = 0.3011	1.526
303.15 K, 101.33 kPa, x1 = 0.3924	1.483
303.15 K, 101.33 kPa, x1 = 0.4763	1.391
303.15 K, 101.33 kPa, x1 = 0.5118	1.358
303.15 K, 101.33 kPa, x1 = 0.5664	1.304
318 K, 101.3 kPa, x1 = 0.114	1.312
318 K, 101.3 kPa, x1 = 0.2398	1.25
318 K, 101.3 kPa, x1 = 0.424	1.139
318 K, 101.3 kPa, x1 = 0.5763	1.035
318 K, 101.3 kPa, x1 = 0.8096	0.8725

ClC(Cl)(Cl)Cl + CC(C)CO
viscosity [mPa·s], 101 kPa
Details	x2 = 0.0126	x2 = 0.0461	x2 = 0.0853	x2 = 0.2088	x2 = 0.2911	x2 = 0.411	x2 = 0.5341	x2 = 0.7116	x2 = 0.8407
298.15 K	0.888	0.896	0.914	0.995	1.079	1.251	1.521	2.076	2.631
308.15 K	0.774	0.774	0.791	0.845	0.909	1.023	1.206	1.581	1.942
318.15 K	0.679	0.679	0.695	0.726	0.77	0.851	0.978	1.235	1.482

CCCC(C)=O + c1ccccc1
303.15 K, 101.32 kPa
Details	viscosity [mPa·s]
x2 = 0.1304	0.469
x2 = 0.2771	0.475
x2 = 0.3294	0.484
x2 = 0.4869	0.499
x2 = 0.6257	0.515
x2 = 0.6946	0.522
x2 = 0.7707	0.532
x2 = 0.9042	0.553
